Where two headings read alike, the source gives them in different places.
Columns and labels:
[1] = biological target: ENPP1 on MDA-MB-231 cells (Homo sapiens (Human), UniProt P22413); test: Assay 3: inhibition of ENPP1 hydrolysis of AMP p-nitrophenyl ester on MDA-MB-231 cells
Method: Hydrolysis of the p-nitrophenyl ester of AMP (pNP-AMP), an isostere of ATP, is selectively catalyzed by ENPP1 in the supernatant of MDA-MB-231 cell cultures. Inhibition of the hydrolysis of pNP-AMP by MDA-MB-231 at pH 7.4 and 37° C., is a good model of physiologically relevant activity of membrane-bound ENPP1 at disease-relevant expression levels.
MDA-MB-231 cells were harvested using TypLE Express Enzyme digestion and suspended in 100 μL of Leibovitz's L-15 Medium, 20% FBS, seeding the cells in a 96-well assay plate with 4.5×10^4 cells/well. Cells were incubated at 37° C. with 1% CO2 for 24 h. In a separate dilution plate, 2× of top dose of compound was prepared in phenol-red free 1640 medium without FBS and then 1:3 serial diluted in the same medium. The cell culture medium of L15 medium was aspirated carefully and cells were washed with PBS once, and 50 μL per well of test compound or DMSO blank were added to the assay plate. Substrate mix (50 μL; 0.5 mM pNP-AMP in phenol-red free 1640 media without FBS) was added for a pNP-AMP final concentration of 0.25 mM. The system was incubated at 37° C. for 3 h.

ENPP-1 ECD = ENPP-1 ECD (Homo sapiens (Human), UniProt P22413); test: Assay 2: inhibition of ENPP1 hydrolysis of 2′,3′-cGAMP (AMP-Glo, […] enzyme)
Method: Assay 2: Compared to the conditions in Assay 1, this assay has a larger dynamic range and ensures the system is under steady-state conditions by reducing the enzyme concentration in the assay.
Test compounds were plated in a 3× dilution scheme in a 384 well plate. […] AMP Detection solution (10 μL) was added to each well, the plate centrifuged and incubated for 60 min.

[2] = Assay 2 (KI), inhibition of ENPP1 hydrolysis of 2′,3′-cGAMP, no unit in Table 18 (Table 17 legend for this assay uses nM)
[3] = read-out: Assay 3 (KI, app), apparent KI from IC50 via Cheng/Prusoff, pNP-AMP […], MDA-MB-231 cells, pH 7.4, 37° C., 3 h, unit inferred
[4] = read-out: Assay 2 (KI), inhibition of ENPP1 hydrolysis of 2′,3′-cGAMP, no unit in Table 18 (Table 17 legend for this assay uses nM)
[5] = Assay 2 (KI), ENPP1 hydrolysis of 2′,3′-cGAMP, AMP-Glo, […] ENPP-1, 24 μM cGAMP

ENPP1 on MDA-MB-231 cells, sequence (P22413 whole entry, the tested form may be a part): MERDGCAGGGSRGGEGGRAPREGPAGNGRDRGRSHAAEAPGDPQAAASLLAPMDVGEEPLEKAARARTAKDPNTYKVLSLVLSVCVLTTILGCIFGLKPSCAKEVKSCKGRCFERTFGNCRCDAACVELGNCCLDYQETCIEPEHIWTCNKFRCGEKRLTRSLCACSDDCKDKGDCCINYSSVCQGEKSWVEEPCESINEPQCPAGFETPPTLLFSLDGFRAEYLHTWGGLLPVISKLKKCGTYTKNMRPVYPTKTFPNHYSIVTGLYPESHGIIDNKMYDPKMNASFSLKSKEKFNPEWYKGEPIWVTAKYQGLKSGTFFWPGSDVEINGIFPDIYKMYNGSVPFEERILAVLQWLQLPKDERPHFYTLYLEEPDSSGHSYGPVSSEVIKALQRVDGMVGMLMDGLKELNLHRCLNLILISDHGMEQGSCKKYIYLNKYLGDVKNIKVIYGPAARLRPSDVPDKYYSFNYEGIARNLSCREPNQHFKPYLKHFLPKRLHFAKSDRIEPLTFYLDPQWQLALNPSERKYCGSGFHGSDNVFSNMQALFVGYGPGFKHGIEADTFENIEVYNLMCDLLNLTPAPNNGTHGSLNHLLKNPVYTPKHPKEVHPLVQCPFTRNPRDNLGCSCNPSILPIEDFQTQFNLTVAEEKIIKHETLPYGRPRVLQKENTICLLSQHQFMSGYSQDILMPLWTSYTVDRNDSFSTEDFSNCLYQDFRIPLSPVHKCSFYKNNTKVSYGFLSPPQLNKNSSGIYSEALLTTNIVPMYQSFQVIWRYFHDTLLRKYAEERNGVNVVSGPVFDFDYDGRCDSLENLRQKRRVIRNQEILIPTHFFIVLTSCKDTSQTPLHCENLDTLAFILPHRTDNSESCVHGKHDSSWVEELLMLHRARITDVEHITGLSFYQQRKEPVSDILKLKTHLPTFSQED
ENPP-1 ECD, sequence (P22413 98-925): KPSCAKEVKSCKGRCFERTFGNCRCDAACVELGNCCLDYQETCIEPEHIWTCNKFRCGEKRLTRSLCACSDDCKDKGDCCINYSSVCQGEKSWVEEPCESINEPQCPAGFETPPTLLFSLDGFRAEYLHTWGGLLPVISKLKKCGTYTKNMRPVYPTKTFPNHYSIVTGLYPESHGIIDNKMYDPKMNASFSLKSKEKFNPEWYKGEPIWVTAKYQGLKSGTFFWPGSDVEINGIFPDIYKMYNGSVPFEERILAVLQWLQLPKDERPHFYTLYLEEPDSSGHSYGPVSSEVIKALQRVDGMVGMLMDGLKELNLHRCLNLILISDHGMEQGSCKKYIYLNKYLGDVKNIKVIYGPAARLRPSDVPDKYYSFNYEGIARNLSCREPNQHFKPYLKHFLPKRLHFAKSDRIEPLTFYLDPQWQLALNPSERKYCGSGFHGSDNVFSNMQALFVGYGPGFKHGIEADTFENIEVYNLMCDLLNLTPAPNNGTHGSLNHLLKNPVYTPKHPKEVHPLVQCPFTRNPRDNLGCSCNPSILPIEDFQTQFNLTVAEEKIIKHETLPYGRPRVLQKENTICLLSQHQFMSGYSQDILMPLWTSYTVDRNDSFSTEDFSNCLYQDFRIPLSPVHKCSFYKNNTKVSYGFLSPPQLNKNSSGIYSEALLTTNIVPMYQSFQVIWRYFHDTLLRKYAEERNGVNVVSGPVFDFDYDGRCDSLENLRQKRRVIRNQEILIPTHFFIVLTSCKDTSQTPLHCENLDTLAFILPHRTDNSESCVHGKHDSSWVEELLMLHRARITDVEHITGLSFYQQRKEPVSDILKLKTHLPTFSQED

Compound | Ki [1] | Ki (ENPP-1 ECD; [2]) | Ki [1, 3] | Ki (ENPP-1 ECD; read-out: Assay 2 (KI), ENPP1 hydrolysis of 2′,3′-cGAMP, AMP-Glo, […] ENPP-1, 24 μM cGAMP) | Ki (ENPP-1 ECD; [4]) | Ki (ENPP-1 ECD; [5])
COc1cc2ncnc(N3CCC4(CCN(S(C)(=N)=O)CC4)C3)c2cc1OC (stereo not shown) [Compound 207, [2-(6,7-dimethoxyquinazolin-4-yl)-2,8-diazaspiro[4.5]decan-8-yl](imino)methyl-λ^6-sulfanone] | 3.3 nM | 0.037 nM |  |  |  | 
COc1cc2nccc(OCc3cccc(S(=N)(=O)C4CC4)c3)c2cc1F (stereo not shown) [Compound 244, [cyclopropyl(3-{[(6-fluoro-7-methoxyquinolin-4-yl)oxy]methyl}phenyl)imino-λ^6-sulfanyl]one] | 0.55 nM | 0.018 nM |  |  |  | 
COc1cccc2c(N3CCC(CS(C)(=N)=O)CC3)c(C#N)cnc12 (stereo not shown) [Compound 179, 4-(4-{[imino(methyl)oxo-λ^6-sulfanyl]methyl}piperidin-1-yl)-8-methoxyquinoline-3-carbonitrile] | 3.3 nM | 0.048 nM |  |  |  | 
COc1cc2ncnc(N3CCC(CN[S@@](C)(=N)=O)CC3)c2cc1OC [Compound 94a] |  |  | 46 nM | < 3 nM | 0.78 nM | 
COc1cc2nccc(N3CCC4(CC3)CCN(S(C)(=N)=O)C4)c2cc1F (stereo not shown) [Compound 205, [8-(6-fluoro-7-methoxyquinolin-4-yl)-2,8-diazaspiro[4.5]decan-2-yl](imino)methyl-λ^6-sulfanone] | 2.2 nM | 0.032 nM |  |  |  | 
COc1cc2ncnc(N3CCC4(CC3)CCN(S(C)(=N)=O)C4)c2cc1OCF (stereo not shown) [Compound 241, {8-[6-(fluoromethoxy)-7-methoxyquinazolin-4-yl]-2,8-diazaspiro[4.5]decan-2-yl}(imino)methyl-λ^6-sulfanone] | 1.2 nM | 0.031 nM |  |  |  | 
COc1cc2nccc(N3CCC4(CC3)CCN([S@](C)(=N)=O)C4)c2cc1OC [Compound 208b] |  |  | 0.16 nM |  | 0.0078 nM | 
COc1cc2ncnc(N3CCC4(CCC(S(C)(=N)=O)C4)CC3)c2cc1OC (stereo not shown) [Compound 181, [8-(6,7-dimethoxyquinazolin-4-yl)-8-azaspiro[4.5]decan-2-yl](imino)methyl-λ^6-sulfanone] | 28 nM | 0.16 nM |  |  |  | 
COc1ccc2c(N3CCC(CCS(C)(=N)=O)CC3)c(C#N)cnc2c1 (stereo not shown) [Compound 143, 4-(4-{2-[imino(methyl)oxo-λ6-sulfanyl]ethyl}piperidin-1-yl)-7-methoxyquinoline-3-carbonitrile] | 180 nM | 1 nM |  |  |  | < 3 nM
COc1cccc2c(N3CCC(C[S@](=N)(=O)C4CC4)CC3)c(C#N)cnc12 [Compound 189b] |  |  | 0.31 nM |  | 0.0075 nM | 
COc1ccc2c(Oc3ccc(S(C)(=N)=O)cc3)cc(C)nc2c1 (stereo not shown) [Compound 124, imino({4-[(7-methoxy-2-methylquinolin-4-yl)oxy]phenyl})methyl-λ^6-sulfanone] | 30 nM | 0.73 nM |  |  |  | < 3 nM
COc1cc2nncc(N3CCC4(CC3)CCN([S@](C)(=N)=O)C4)c2cc1OC [Compound 211a] |  |  | 2.2 nM |  | 0.023 nM | 
COc1cc2nccc(OCc3cccc([S@](C)(=N)=O)c3)c2cc1F [Compound 169b] |  |  | 1.5 nM |  | 0.018 nM | 
COc1cccc2c(N3CC4(CCN([S@@](C)(=N)=O)C4)C3)c(C#N)cnc12 [Compound 222a] |  |  | 1.2 nM |  | 0.034 nM | 
COc1cc2nccc(N3CCC4(CC3)CCN(S(C)(=N)=O)C4)c2cc1OC (stereo not shown) [Compound 208, [8-(6,7-dimethoxyquinolin-4-yl)-2,8-diazaspiro[4.5]decan-2-yl](imino)methyl-λ^6-sulfanone] | 0.21 nM | 0.021 nM |  |  |  | 
COc1cccc2c(N3CCC(C[S@](C)(=N)=O)CC3)c(C#N)cnc12 [Compound 179b] |  |  | 0.63 nM |  | 0.014 nM | 
COc1cc2nccc(OC[C@@H]3CCN([S@](C)(=N)=O)C3)c2cc1F [Compound 229b] |  |  | 3.6 nM |  | 0.37 nM | 
COc1cccc2c(N3CCC(CS(C)(=N)=O)CC3)ncnc12 (stereo not shown) [Compound 146, imino({[1-(8-methoxyquinazolin-4-yl)piperidin-4-yl]methyl})methyl-λ^6-sulfanone] | 15 nM | 0.36 nM |  |  |  | < 3 nM

— US11780849B2, “Imino sulfanone inhibitors of ENPP1” (Volastra Therapeutics, Inc., priority 2020, dated 2023)
